# Results from patent publication EP4588470A1, “PHARMACEUTICAL COMPOSITION COMPRISING CURCUMIN AND THE PREPARATION THEREOF” (priority 2024, dated 2025).
# Assays:
# [1] = system: human circulating tumor cells; experiment: drug sensitivity testing (CTC assay) on circulating tumor cells cultivated from patient blood; type: cell-based
# Text: Determination of the effect of a pharmaceutical composition according to the present invention, on human circulating tumor cells in blood of nine patients suffering from different types of carcinoma as given in the following Table IV. The composition of the pharmaceutical composition is the same as used in Example 4.
# The cells from the collected blood were cultivated in a usual manner with an agent. The agent was either the pharmaceutical composition according to the present invention, or Resveratrol-ACTIF®, which is a combination preparation comprising resveratrol and at least one gingerol, that were added to the cell culture in a concentration of either 50% 100% and 200%.
# The same EDTA blood sample used for the verification of the CTC burden was used for drug sensitivity testing.
# After enrichment of mononuclear cells by density gradient centrifugation, CD45 depletion and erythrolysis the remaining cells were suspended in cell culture medium and incubated for 4 days with and without the tested compounds. Compounds were tested at three tissue culture doses (TCD), namely 50%, 100% and 200%.. […]
# The same experiment was performed with human circulating tumor cells, prepared from a tumor patient by using Resveratrol-ACTIF® and the pharmaceutical composition according to the present invention. […] The results vary from patient to patient and therefore have to be determined individually. […]
# [2] = in buffer at pH 7; cited from earlier work
# [3] = several animal studies; cited from earlier work
compound,measurement,setting,value
N.N.O=C([O-])C1(C(=O)[O-])CCC1.[Pt+2] [Carboplatin],response of tumor cell-inhibition,"[1]; patient 7, Figure 8, already with the 50% TCD (7,9 µg/ml)",maximal response has been reached
CCC(=O)C(CC(C)N(C)C)(c1ccccc1)c1ccccc1 (stereo not shown) [Methadon],antitumoral capacity among the tested chemotherapeutics,[1],highest antitumoral capacity
"COc1cc(C=CC(=O)CC(=O)C=Cc2ccc(O)c(OC)c2)ccc1O [curcumin, 1,7-bis(4-hydroxy-3-methoxyphenyl)-1,6-heptadiene-3,5-dione]",solubility in aqueous solution,[2],less than 0.03 M
same,oral curcumin excreted in the faeces,[3],90%
